Assays:
[1] = test system: diabetic rats; assay: Fasting blood glucose assay in diabetic rats after single intraosseous statin injection; format: in vivo, rat; settings: 1-14 weeks after single intraosseous injection (fluvastatin 8 mg, atorvastatin 4 mg, rosuvastatin 2 mg); tail blood, glucose meter
Procedure: 36 three-month-old male SD rats (250-300 g) rats were accommodated for one week, in accordance with standard procedures of diabetic rat model, intraperitoneal injection of streptozotocin (STZ, Sigma Company) 40 mg/kg, the next day administration of high fat diet (purchased from Institute of Zoology, recipe: 68.5% base stock, lard 20%, 10% sucrose, 1% cholesterol and 0.5% porcine bile salts).
Two months later, all the rats were abnormally elevated blood glucose (above 19.5 mmol/L), indicate a successful model (Zhouguang Xing animal models of human disease replication methodology Shanghai Science and Technology Literature Press, 2008: 167-168 SHI Xin animal models of human disease People's Health Press, 2008: 301-305). […] Bone wax pinhole puncture closure avoiding leakage and sutured wounds.
After the rats were fasted 6 h, take one drop of blood (about 50 ul) from the rat tail and placed in the blood sugar test paper (Roche), 2 seconds later, fasting blood glucose were determinated by Roche glucose meter (ACCU-CHEK Performa). […]

[2] = test system: type 2 diabetes patients; settings: oral atorvastatin 10 mg/d for 16 weeks added to conventional antidiabetic; vs control group; cited from earlier work
[3] = oral atorvastatin 10 mg/day, simvastatin 40 mg/day; cited from earlier work

SMILES: CC(C)c1c(C(=O)Nc2ccccc2)c(-c2ccccc2)c(-c2ccc(F)cc2)n1CC[C@@H](O)C[C@@H](O)CC(=O)O [atorvastatin]
- fasting blood glucose [1]: significantly reduced
- blood glucose [2]: much better than the control group
- effect on diabetes [3]: no effect

SMILES: CC(C)c1nc(N(C)S(C)(=O)=O)nc(-c2ccc(F)cc2)c1/C=C/[C@@H](O)C[C@@H](O)CC(=O)O [rosuvastatin]
- fasting blood glucose [1]: significantly reduced
